# Patent US7666996B2, “Casein derived peptides and uses thereof” (priority 2000, dated 2010)
# Key:
# [1] = tested on: Non-Obese Diabetic (NOD) mice; test: Intraperitoneal Glucose Tolerance Test (IPGTT) in NOD mice; type: in vivo; conditions: healthy NOD mice after 25 weeks
# Protocol: Intraperitoneal Glucose Tolerance Test (IPGTT): The glucose tolerance test is the definitive method for investigating glucose metabolism and diabetic tendencies in mammals. Twenty five (25) weeks after receiving Synthetic peptides derived from casein, response to a glucose load was assessed with an intraperitoneal glucose tolerance test. Glucose injection consisted of 1 g/kg body weight. Glycemic values were determined from blood drawn prior to test (0 minutes) and 60 minutes after loading.
# [2] = tested on: Sup-T1 cells; test: Sup-T1 lymphocyte proliferation (cell counts); type: cell-based, human; conditions: data not shown
# Protocol: [^3H]-thymidine incorporation test: In order to test the effect of peptides derived from natural casein on T cell proliferation, several concentrations of peptides derived from natural casein (10 mg/ml stock in RPMI) were added to Sup-T1 cell cultures in 96 flat bottom microwell plate (5000 cells/well), as described for HIV-1 infection in Sup-T1 cells. Cells were counted and their viability was determined by trypan blue dye exclusion. They were pulsed with [^3H]-thymidine at each time point (3, 7, 10 and 14 days) for 18 hours (over night) and harvested on glass fiber filters for radioactivity reading (Incorporation of [^3H]-thymidine into cellular DNA is proportional to degree of cell proliferation).
# [3] = tested on: Non-Obese Diabetic (NOD) mice; test: Glucosuria in Non-Obese Diabetic (NOD) mice; type: in vivo; conditions: for Healthy/Total (sugar not detected in urine): female NOD mice, 100 μg synthetic peptide once weekly for 5 weeks, evaluated after 25 weeks; for Urine Sugar: individual healthy NOD mice, after 25 weeks
# Protocol: Juvenile (Type I, IDDM) diabetes in Non-Obese Diabetic (NOD) mice:
# Peptides derived from natural casein: NOD mice are a commonly used model for research of autoimmune disease and human Juvenile Diabetes. Six week old female NOD mice received either one or two injections per week of 100 μg of peptides derived from natural casein, for a total of 5 or 10 treatments. Control mice received no treatment. The severity of disease was determined according to glucosuria, which was measured using Combi test sticks [Gross, D. J. et al (1994), Diabetology, 37:1195]. Results were expressed as the percent of glucosuria-free mice in each sample over a 365-day period.
# Synthetic peptides derived from casein: In another experiment, 6 week old female NOD mice received one injection per week of 100 μg of Synthetic peptides derived from casein for a total of 5 treatments. Control mice received no treatment. Results were expressed as the number of healthy mice in the various treated groups.
# [4] = tested on: human bone marrow cells; test: Colony assays in cultured human bone marrow cells (CFU-GM, MK, BFU-E, CFU-GEMM); type: cell-based; conditions: 100 μg/ml synthetic peptide in the presence of EPO
# Protocol: Proliferation of megakaryocyte- and erythroid forming cells from human bone marrow and cord blood cells: A sample of bone marrow from an apparently healthy human being was processed by density gradient separation using Histopaque-107 (Sigma Diagnostics) to obtain a purified population of mononuclear cells (MNC). Colony assays were performed in a plating medium containing final concentrations of 0.92% methyl cellulose (4000 centripase powder, Sigma Diagnostic), rehydrated in Iscoves modified Dulbecco's medium containing 36 mM sodium bicarbonate (Gibco), 30% fetal bovine serum (FBS) (Hyclone), 0.292 mg/ml glutamine, 100 units per ml penicillin and 0.01 mg per ml streptomycin (Biological Industries, Beit Haemek). Cord blood from normal births was collected and prepared as mentioned above.
# Colony assay medium containing 10^5 MNC per ml was plated in triplicate wells within a 24 well tissue culture plate (Greiner), 0.33 ml per well. The cultures were incubated at 37° C. in 5% CO2, 95% air and 55% relative humidity with or without peptides derived from natural casein or synthetic peptides derived from casein, at the indicated concentrations. Plates were scored after 14 days for colonies containing more than 50 cells. […]
# [5] = tested on: irradiated, bone marrow transplanted mice; test: Leukocyte and platelet reconstitution in bone marrow transplant recipient mice; type: in vivo; conditions: for enhancement of platelet counts over control mice: 3×10^6 cells, 10 days post-transplantation
# Protocol: Leukocyte and platelet reconstitution in bone marrow transplant recipient Mice: BALB/c mice were sub-lethally irradiated at a source to skin distance of 70 cm, dosage of 50 cGy per minute, for a total of 600 cGy. The irradiated mice were […] casein, synthetic peptides derived from casein (13-26 amino acids, see Table 3 above), or human serum albumin (controls), following a double-blinded protocol. Leukocyte reconstitution was determined according to cell count in peripheral blood collected at indicated intervals from 6 to 12 days post treatment. Platelet reconstitution was determined by cell count in blood collected from the retro orbital plexus, into EDTA-containing vials, at indicated intervals from day 6 to day 15 post treatment. […]
# In a third series of experiments, the mice were irradiated (800 cGy), reconstituted and injected intraperitoneally with 1.0 mg synthetic peptides derived from casein (peptides 3a and 4P, representing the first 6 and 12 amino acids of the N terminus of αS1 casein, respectively—see Table 3 above) daily, on days 4, 5, 6 and 7 post-transplantation. Platelet reconstitution was assayed at 10 and 12 days post-transplantation.
# In a fourth series of experiments, F1 mice were irradiated (750 cGy), reconstituted with syngeneic bone marrow, and injected intravenously 24 hours later with 1 mg per mouse of synthetic peptides derived from casein representing amino acids 1-22 of the N terminus of αS1 casein. In addition, 2 (two) groups of mice were treated each with a natural fraction of αS1 casein position 1-23, and a fraction of peptides derived from natural κ-casein, representing amino acid coordinates 106-169 of κ-casein (SEQ ID NO: 27). WBC counts were conducted on days 5, 7, 10 and 12 post-transplantation.
# [6] = tested on: murine bone marrow progenitor cells; test: CFU-GEMM colonies from murine bone marrow cells, differential counts; type: cell-based
# Protocol: Proliferation of megakaryocytes in multipotential colonies (CFU-GEMM) from murine bone marrow cells: Primary bone marrow cells (1×10^5 per ml) from 8-12 week-old C3H/HeJ […], 95% air, at 37° C. The medium, appropriate for the growth of multipotential colonies (CFU-GEMM), contained 1% BSA (Sigma), 10^−4 M thioglycerol (Sigma), 2.8×10^−4 M human transferrin (TF, Biological industries, Israel), 10% WEHI-CM as a source of IL-3 and 2 units per ml erythropoietin (rhEPO, R & D Systems, Minneapolis). […] They were picked with a micropipette, cytocentrifuged and stained with May-Grunwald-Giemsa for differential counts. At least 700 cells were counted for each preparation.
# Proliferation of Dendritic cells in CFU-GEMM: Multipotent (CFU-GEMM) colonies grown from primary bone marrow cells as described for the assay of megakaryocyte proliferation above were collected, stained and counted for dendritic cells. At least 700 cells were counted for each preparation.
# Proliferation of Plasma cells in CFU-GEMM: Multipotent (CFU-GEMM) colonies grown from primary bone marrow cells as described for the assay of megakaryocyte proliferation above were collected, stained and counted for plasma cells. At least 700 cells were counted for each preparation.
# Proliferation of Macrophage Cells in CFU-GEMM: Multipotent (CFU-GEMM) colonies grown from primary bone marrow cells as described for the assay of megakaryocyte proliferation above were collected, stained and counted for macrophage cells. At least 700 cells were counted for each preparation.
# Proliferation of Red Blood Cells in CFU-GEMM: Multipotent (CFU-GEMM) colonies grown from primary bone marrow cells as described for the assay of megakaryocyte proliferation above were collected, stained and counted for red blood cells. At least 700 cells were counted for each preparation.
# Proliferation of Polymorphonuclear Cells (PMN) in CFU-GEMM: Multipotent (CFU-GEMM) colonies grown from primary bone marrow cells as described for the assay of megakaryocyte proliferation above were collected, stained and counted for polymorphonuclear cells. […]
# [7] = tested on: human bone marrow progenitor cells; test: CFU-GM colony formation with IL-3 and G-CSF, human bone marrow; type: cell-based; conditions: 100 μg/ml, 14 days
# Protocol: Cells were scored in the macroscopic colonies grown from human bone marrow cells prepared similarly to the CFU-GEMM colonies previously described. Cells were incubated with hematopoietic factors cytokine (IL-3) and colony stimulating factor (G-CSF), and 25 μg or more of synthetic peptides derived from casein: peptide J, representing amino acids 1-22 of α-S1 casein. Exposure of the human bone marrow progenitor cells to peptides derived from casein was for 14 days. Stimulation of colony formation (CFU) is expressed as the number of myeloid colonies in 10^5 plated MNCs.
# A similar effect of synthetic peptides derived from αS1 casein was observed on the proliferation of granulocytes and macrophages from human bone marrow progenitor cells. […] (FIG. 20). Thus, synthetic peptides derived from αS1 casein or combinations thereof are effective in augmenting the effect of granulopoitic factors such as G-CSF on bone marrow hematpoietic progenitor cell differentiation and expansion.
# [8] = tested on: murine bone marrow progenitor cells; test: CFU-GM colony formation with IL-3 and G-CSF, murine bone marrow; type: cell-based
# Protocol: Cells were scored in the macroscopic colonies grown from murine bone marrow cells prepared similarly to the CFU-GEMM colonies previously described. Cells were incubated with hematopoietic factors cytokine (IL-3) and colony stimulating factor (G-CSF), and 25 μg or more of synthetic peptides derived from casein (J), representing amino acids 1-22 of α-S1 casein, or 30-4, representing amino acids 1-6 of α-S1 casein, for 14 days, individually or in combination. The stimulation of colony formation (CFU) is expressed as the number of myeloid colonies in 10^5 plated MNCs.
# Synthetic peptides derived from αS1-casein stimulate Granulopoietic (GM) cell proliferation in CFU-GM: As mentioned hereinabove, formation and expansion of CFU-GM (Granulocyte and Macrophage) colonies, and CFU-GEMM (Granulocyte, Erythroid, Macrophage and Megakaryocyte) colonies constitute one of the early events in the differentiation of hematopoietic progenitor cells in the bone marrow.
Sequence,IPGT test outcome (in words) [1],increase in lymphocyte cell number in infected cells ([2]; 250 μg per ml),increase in lymphocyte cell number in infected cells ([2]; 500 μg per ml),"prevention of glucosuria (in words) ([3]; 100 μg once weekly for 5 weeks, 25 weeks)",Healthy/Total (sugar not detected in urine) [3],Urine Sugar [3],proliferation of erythroid cell precursors (BFU-E colonies) vs EPO alone [4],"peripheral white blood cell counts, day 10 ([5]; BALB/c, 600 cGy, 1 mg per mouse intraperitoneal, control 1.67)","peripheral white blood cell counts, day 12 ([5]; BALB/c, 600 cGy, 1 mg per mouse intraperitoneal, control 4.64)","white blood cell reconstitution (in words) ([5]; F1 mice, 750 cGy, 1 mg i.v., days 5 and 7 post-reconstitution)","enhancement of platelet counts over control mice ([5]; F1 mice, 750 cGy, 1 mg i.v.)","enhancement of platelet counts over control mice ([5]; F1 mice, 750 cGy, 1 mg i.v., listed as amino acids 1-22 of αS1-casein)","effect on Early (E.MK) megakaryocyte formation (in words) ([6]; 25 μg or more, 14 days)","increase in total megakaryocyte proliferation over controls ([6]; synthetic peptide, FIG. 21)",enhancement of granulopoietic stimulating effect of G-CSF (myelocyte formation) [7],"myelocyte formation with G-CSF and IL-3 (in words) ([8]; 25 μg or more, 14 days)",increase in proliferation of granulocytes ([8]; in the presence of G-CSF)
"RPKHPIKHQ [X, synthetic peptide, N-terminal 9 amino acids of αS1 casein]",no evidence of abnormal glucose metabolism,80%,33%,highly effective,3/5,Negative,–,–,–,–,–,–,–,–,–,–,–
"RPKHPIKHQGLPQEVLNE [F, synthetic peptide, N-terminal 18 amino acids of αS1 casein]",–,–,–,–,–,–,one and one-half,–,–,–,–,–,–,–,–,–,–
"RPKHPIKHQGLPQEVLNENLLR [J, synthetic peptide, amino acids 1-22 of α-S1 casein]",–,–,–,–,3/5,Negative,–,2.74 ×10^6 cells per ml,5.20 ×10^6 cells per ml,dramatic enhancement,> 25%,34%,dramatic effect,57%,> 50%,synergistic increase,25%
